Read-outs that look alike come from different tables or passages of the source.
What was measured:
[1] = biological target: T1, Porcn (Mus musculus, UniProt Q9JJJ7); test: Suppression of Wnt signaling in L-Wnt-STF cells; assay type: cell-based
T1 sequence (Q9JJJ7 1-461): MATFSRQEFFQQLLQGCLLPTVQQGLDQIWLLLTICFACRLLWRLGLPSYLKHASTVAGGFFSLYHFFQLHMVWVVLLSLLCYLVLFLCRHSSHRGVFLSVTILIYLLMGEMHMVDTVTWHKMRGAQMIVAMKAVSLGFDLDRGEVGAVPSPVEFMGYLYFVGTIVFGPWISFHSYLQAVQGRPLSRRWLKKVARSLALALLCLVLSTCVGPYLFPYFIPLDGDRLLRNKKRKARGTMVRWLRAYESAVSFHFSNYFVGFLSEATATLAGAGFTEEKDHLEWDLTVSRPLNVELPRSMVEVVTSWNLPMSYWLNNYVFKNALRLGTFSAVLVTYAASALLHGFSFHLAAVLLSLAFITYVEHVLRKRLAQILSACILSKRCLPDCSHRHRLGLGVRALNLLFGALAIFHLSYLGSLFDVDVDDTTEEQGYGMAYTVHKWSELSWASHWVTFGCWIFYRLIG

[2] = Metabolic stability in murine liver S9 fractions; assay type: in vitro ADME; settings: for stability (in words): compared with 6
[3] = Stability in murine plasma; assay type: in vitro ADME; settings: compared with 6
[4] = murine liver S9 fractions; cited from earlier work
[5] = biological target: T1, Porcn; settings: L-Wnt-STF cells; cited from earlier work
[6] = human plasma; cited from earlier work
[7] = murine plasma; cited from earlier work
[8] = system: LRP6 phosphorylation in HeLa cells; test: Western blot of LRP6 phosphorylation in HeLa cells; assay type: cell-based; settings: 24 h incubation
[9] = system: Dvl2/3 phosphorylation in HeLa cells; test: Western blot of Dvl2/3 phosphorylation in HeLa cells; assay type: cell-based; settings: 24 h incubation

Cc1ccc2nc(NC(=O)CSc3nc4c(c(=O)n3-c3ccccc3)SCC4)sc2c1 [IWP-2, reference compound]
fold decrease of potency relative to 17 ([1]; L-Wnt-STF cells): 5 fold

O=C(CSc1nnc(-c2ccncc2)o1)Nc1ccc(-c2cccnc2)cc1 [IWP-L1]
activity against Wnt signaling ([1]; at low micromolar concentrations): inactive

O=C(CSc1nnc(-c2ccncc2)n1-c1ccccc1)Nc1ccc(-c2cccnc2)cc1 [IWP-L2]
stability (in words) [2]: low stability
EC50 [1]: 0.3 nM
stability (in words) [3]: low stability

O=C(CSc1nc2c(c(=O)n1-c1ccccc1)SCC2)Nc1ccc(-c2ccccc2)cn1 [IWP-L6]
Half-life [4]: 26 min
fold more potent than 1 (IWP-2) [5]: 60 fold
stability (in words) [6]: good stability
Half-life [7]: <5 min

O=C(Cn1cc(-c2ccncc2)nn1)Nc1ccc(-c2ccccc2)cn1 [IWP-N3]
stability (in words) [2]: much more stable
stability (in words) [3]: much more stable

O=C(Cn1nnc(-c2ccncc2)c1-c1ccccc1)Nc1ccc(-c2ccccc2)cn1 [IWP-O1]
degradation after incubation ([2]; 4 h): did not observe any degradation
stability (in words) [2]: much more stable
phosphorylation of LRP6 [8]: suppressed
phosphorylation of Dvl2/3 [9]: effectively suppressed
times more potent than LGK974 ([1]; L-Wnt-STF cells): 2.5 times
stability (in words) [3]: much more stable

Cc1cc(-c2ncc(CC(=O)Nc3ccc(-c4cnccn4)cn3)cc2C)ccn1 [LGK974, reference compound]
EC50 [1]: 0.2 nM
